Laboratory results reported in patent publication US4728650A, “3,4-dihydrobenzopyran derivatives and medicinal uses thereof” (Kuraray Co., Ltd., priority 1985, dated 1988).
Structures can show the parent of a compound that is named as a salt.

Columns and labels:
[1] = Stress ulcer (water immersion stress) in mice; type: in vivo, mice (ddK strain, male); conditions: Table 1, 25 mg/kg p.o.
Experimental: Male mice of ddK strain (body weights, 18-20 g) were placed in a stress cage in groups of 6 animals and immersed down to the level of the xiphoid process in a water bath at 22±1° C. to give a stress. Five hours later the mice were raised from the water bath and the stomach was removed under ether anesthesia. Into the stomach was infused 1.2 ml of a 10% aqueous solution of formaldehyde and, then, the stomach was immersed in a 10% aqueous solution of formaldehyde for 10 minutes for fixation of the tissue. After fixation, an incision was made along the greater curvature for observing ulcers which had appeared in the glandular portion of the stomach. The degree of ulceration was classified according to the following ulcer index scale and the % inhibition of ulcer was estimated.
2: Hemorrhage and erosion
3: Severe hemorrhage and erosion
Each test compound was orally administered, as suspended in a gum arabic solution in concentration of 5%, to mice 10 minutes before stress loading.

[2] = Pyloric ligation-induced ulcer (Shay ulcer) in rats; type: in vivo, Wistar rats (male); conditions: Table 2, 50 mg/kg i.d.
Experimental: Male Wistar rats (body weights, 180-200 g) were used in groups of 7 animals. After 48-hour fasting, laparotomy was performed under ether anesthesia and the pylorus was ligated with a suture. After 13 hours, the stomach was isolated under ether anesthesia and gastric juice was collected. The gastric juice was centrifuged at 3,000 r.p.m. for 10 minutes and the volume and pH value of gastric juice were determined. The pH value was determined by using pH paper. After collection of gastric juice, a 10% aqueous solution of formaldehyde was infused into the stomach until the stomach was inflated. Then, the stomach was immersed in a 10% aqueous solution of formaldehyde for 10 minutes for fixation of the tissue. After fixation, an incision was made along the greater curvature for observing ulcers which had developed in the glandular portion of the stomach. The degree of ulcer was classified according to the following ulcer index scale.
2: 1-5 small ulcers (<3 mm in diameter)
3: Six or more small ulcers or one large ulcer (>3 mm in diameter)
4: Two or more large ulcers
Each test compound was administered, as suspended in a gum arabic solution in concentration of 5%, into the duodenum immediately after pyloric ligation.

[3] = Indomethacin-induced ulcer in rats; type: in vivo, Wistar rats (male); conditions: Table 3, 50 mg/kg p.o.
Experimental: (§1) Male Wistar rats (body weights, 170-210 g) were used in groups of 6 to 8 animals. Indomethacin, 20 mg/kg body weight, was injected subcutaneously to rats which had been deprived of food for 24 hours. After 7 hours, the stomach was excised under ether anesthesia. A 10% aqueous solution of formaldehyde was infused into the stomach until the stomach was inflated and, then, the stomach was immersed in a 10% aqueous solution of formaldehyde for 10 minutes for fixation of the tissue. After fixation, an incision was made along the greater curvature and the length of ulcers occurring in the glandular portion of the stomach was measured. The total length of ulcers occurring in a rat was taken as an ulcer index. Each test compound was orally administered, as suspended in a gum arabic solution in concentration of 5%, to rats 10 minutes before subcutaneous injection of indomethacin. The doses of test compounds and the ulcer indices for treated and untreated rats are shown in Table 3 for purposes of comparison. The % inhibition of ulcer by each test compound as estimated from the ulcer index is also presented in the same table.

[4] = Hydrochloric acid-ethanol-induced ulcer in rats; type: in vivo, Wistar rats (male)
Experimental: as §1, with “Male Wistar rats (body weights, 160-190 g) were used in groups” for “The doses”, “6 to 8 animals. One milliliter of a 60% aqueous solution of ethanol containing 150 mM hydrochloric acid was administered orally to rats which had been deprived of food for 24 hours. After one hour,” for “test compounds and”, “stomach was excised under ether anesthesia. In a manner similar to that described in study” for “ulcer indices”, “indomethacin-induced ulcer,” for “treated and untreated rats are shown in Table 3 for purposes of comparison. The % inhibition of ulcer by each test compound as estimated from”, “was determined. Each test compound was orally administered, as suspended” for “is also presented”, “a gum arabic solution in concentration of 5%, to rats 1 hour before administration of hydrochloric acid-ethanol.” for “the same table.”

[5] = Acute toxicity in mice, oral; design: species or system ddK strain); conditions: mouse, in vivo, male ddK mice, 10 animals per group
Experimental: The 3,4-dihydrobenzopyran compound [I] has been confirmed to be low in toxicity. […] The corresponding values of Compounds (2) to (11) were respectively more than 2,000 mg/kg, and those of compounds (12) to (36) were all more than 3,500 mg/kg.

[6] = Expectorant action: tracheal secretion of fluorescein sodium in rats; type: in vivo, Wistar rats (male); conditions: 50 mg/kg oral
Experimental: Male Wistar rats (body weights, 280-320 g) were used in groups of 7 animals. Each test compound was orally administered in dose of 50 mg/kg body weight to rats. Immediately after administration, 0.3 ml/100 g (body weight of rat) of a 1% aqueous solution of fluorescein sodium was injected into the caudal vein. One hour after administration of the test compound, pentobarbital sodium 100 mg/kg (body weight of rat) was injected intraperitoneally so that deep anesthesia might cause the rat to die. Then, the trachea was exposed and an incision was made in the trachea. A sonde was inserted thereinto and ligation was made. To the sonde was connected a syringe containing 10 ml of a 5% solution of sodium hydrogen carbonate kept at 37° C. and 4 ml of the solution of sodium hydrogen carbonate was injected into the lung. After 5 minutes, the fluid in the lung was removed. After this procedure of injection and removal was repeated three times, the fluid removed from the lung was filtered and the filtrate was made up with water to make 20 ml. The intensity of fluroescence was determined at the excitation wave length of 491 nm and the fluorescence wave length of 510 nm using a spectrophotometer (HITACHI model 650-10, Hitachi, Ltd.). The amount of fluorescein sodium secreted into the trachea was estimated from the intensity of fluorescence. Each test compound was administered as suspended in a gum arabic solution in concentration of 5%.

[7] = Antitussive action: coughing induced by tracheal stimulation in guinea pigs; type: in vivo; conditions: Cavia porcellus, ip; Table 17; intraperitoneal; up and down method
Experimental: Pentobarbital sodium 15 mg/kg was injected intraperitoneally to guinea pigs (body weight, 400 g or more) and under slight anesthesia, each guinea pig was immobilized in dorsal position. The skin in the anterior cervical region was incised along the midline and the trachea was exposed so as not to injure the subcutaneous tissue. A small hole was drilled in the anterior aspect of the trachea at a location 1.5 cm distant from the clavicle and through this hole a stimulating hair was inserted over a distance of 3 cm at an angle of 30° from the longitudinal axis of the trachea and, after one second, was pulled out. The stimulation was given 5 and 20 minutes after drilling of the small hole, and after occurrence of coughing was confirmed, each test compound was injected intraperitoneally. At 5 time points, i.e. 15, 30, 60, 90 and 120 minutes after injection, it was checked whether stimulation caused coughing in the same manner as described above. If coughing was not induced, even only once on the five occasions of stimulation, the test compound was regarded as effective, and if cough appeared on all the 5 occasions of stimulation,the test compound was regarded as ineffective. The ED50 value (mg/kg) was determined by the up and down method using 10 guinea pigs [See K. A. Brownlee et al., J. Am. Stat. Assoc. 48, 262 (1953)]. As a stimulating hair, one porcine bristle, about 5 cm long, was used.
After completion of the study, the skin and wound opening of each guinea pig were fully disinfected with acrinol solution and the skin was sutured. Then, the guniea pigs were maintained as usual. The guinea pigs were not vigorous on the day following the test, with body weights decreased, but recovered after one week. After the lapse of 10 days or more, the animals were resubmitted to the test.

For COc1c(C)c(C)c2c(c1C)CCC(C)(CC(=O)NC(=N)N)O2 (stereo not drawn) [Compound (1), N-(3,4-Dihydro-6-methoxy-2,5,7,8-tetramethyl-2H-benzopyran-2-yl)acetylguanidine], the “% Inhibition of ulcer” value [1] was 61.98%, the “Ulcer index (mean ± S.E.)” value ([1]; control 2.63 ± 0.18) was 1.00 ± 0.63 mm and the “pH value of gastric juice” value ([2]; control 1.77 ± 0.54) was 2.07 ± 0.94. The “Volume of gastric juice” value ([2]; control 5.09 ± 0.40) was 3.36 ± 0.90 ml/100 g body weight, the “Ulcer index (mean ± S.E.)” value ([2]; scale 0-5, control 3.86 ± 0.40) was 2.33 ± 0.42 and the “% Inhibition of ulcer” value [3] was 77.80%. For the same compound, the “Ulcer index (mean ± S.E.)” value ([3]; control 10.36 ± 2.07) was 2.30 ± 0.58 mm, the inhibition in vivo at 25 mg/kg ([4]; Rattus norvegicus, po, 1 h, Table 7, 25 mg/kg p.o.) was 91.1% and the “Ulcer index (mean ± S.E.)” value ([4]; Table 4, 50 mg/kg p.o., control 7.36 ± 1.23) was 0.39 ± 0.19 mm. For the same compound, the LD50 [5] was 3560 mg/kg.
With COc1cc(C(=O)N2CCN(CCC3(C)CCc4c(C)c(OC)c(C)c(C)c4O3)CC2)cc(OC)c1OC (stereo not drawn) [Compound (17), 3,4-Dihydro-6-methoxy-2-[2-[4-(3,4,5-trimethoxybenzoyl)piperazin-1-yl]ethyl]-2,5,7,8-tetramethyl-2H-benzopyran] the inhibition in vivo at 50 mg/kg ([4]; Rattus norvegicus, po, 1 h, Table 9, 50 mg/kg p.o.) was 65.7%, the “Ulcer index (mean ± S.E.)” value ([4]; Table 9, 50 mg/kg p.o., control 7.22 ± 0.36) was 2.48 ± 0.68 mm and the “Secretory amount (mean ± S.E.)” value ([6]; Table 13, control 5.30 ± 0.40) was 7.90 ± 0.72 μg/100 g (body weight of rat)/. For the same compound, the “Secretory amount (mean ± S.E.)” value ([6]; Table 15, control 5.20 ± 0.78) was 9.44 ± 1.14 μg/100 g (body weight of rat)/ and the ED50 [7] was 113 mg/kg.
In the case of COc1ccc(C(=O)N2CCN(CCC3(C)CCc4c(C)c(OC)c(C)c(C)c4O3)CC2)cc1 (stereo not drawn) [Compound (19), 1-[2-(3,4-Dihydro-6-methoxy-2,5,7,8-tetramethyl-2H-benzopyran-2-yl)ethyl]-4-(4-methoxybenzoyl)piperazine], the “Secretory amount (mean ± S.E.)” value ([6]; Table 13, control 5.30 ± 0.40) is reported as 8.12 ± 0.58 μg/100 g (body weight of rat)/ and the ED50 [7] is reported as 50.1 mg/kg.
For CCOC(CN1CCN(CC(C)C(=O)c2ccccc2)CC1)c1ccccc1 (stereo not drawn) [Eprazinone hydrochloride, 3-[4-(β-ethoxyphenethyl)-1-piperadinyl]-2-methylpropiophenone hydrochloride, reference compound], the “Secretory amount (mean ± S.E.)” value ([6]; Table 13, control 5.30 ± 0.40) was 5.26 ± 0.40 μg/100 g (body weight of rat)/, the “Secretory amount (mean ± S.E.)” value ([6]; Table 14, control 1.60 ± 0.18) was 2.67 ± 0.18 μg/100 g (body weight of rat)/ and the “Secretory amount (mean ± S.E.)” value ([6]; Table 16, control 6.455 ± 0.766) was 5.736 ± 0.369 μg/100 g (body weight of rat)/. It also gave an ED50 [7] of 122 mg/kg.
